Series [1] deals with Erythrocyte. Kind of series: Inhibition of Staphylococcus aureus alpha-hemolysin-induced cytotoxicity against rabbit RBC. It counts as functional, cell-based. As to conditions: Oryctolagus cuniculus.
Series [2] relates to RAW264.7. Kind of series: Inhibition of Bacillus anthracis lethal toxin-induced cytotoxicity in mouse RAW264.7 cells. It counts as functional, cell-based.
The nature of series [3]: Toxicity against mouse RAW264.7 cells. It counts as cell-based.
Series [4] deals with RAW264.7. The series can be described thus: Toxicity against mouse RAW264.7 cells upto 100 uM. It counts as cell-based.
Series [5] addresses T1, Alpha-hemolysin (Staphylococcus aureus) (UniProt P09616).
T1 sequence (whole entry): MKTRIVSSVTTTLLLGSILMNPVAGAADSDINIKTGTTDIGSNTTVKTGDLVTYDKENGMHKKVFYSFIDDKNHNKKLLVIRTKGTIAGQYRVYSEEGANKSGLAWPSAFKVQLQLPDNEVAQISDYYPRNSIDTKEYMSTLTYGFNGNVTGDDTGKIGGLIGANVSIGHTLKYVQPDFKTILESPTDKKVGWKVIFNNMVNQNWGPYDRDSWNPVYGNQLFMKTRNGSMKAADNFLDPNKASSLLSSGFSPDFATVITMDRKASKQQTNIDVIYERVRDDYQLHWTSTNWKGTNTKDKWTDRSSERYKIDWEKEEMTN
Kind of series: Inhibition of Staphylococcus aureus alpha-hemolysin reconstituted in diphytanoylphosphatidylcholine lipid membranes assessed as inhibition of channel conductance at 2 uM.

The target in series [6] is Protective antigen (Bacillus anthracis) (UniProt P13423). Kind of series: Inhibition of Bacillus anthracis protective antigen 63 reconstituted in diphytanoylphosphatidylcholine lipid membranes assessed as inhibition of channel conductance at 5 uM.
Sequence of Protective antigen (Bacillus anthracis) (P13423 whole entry): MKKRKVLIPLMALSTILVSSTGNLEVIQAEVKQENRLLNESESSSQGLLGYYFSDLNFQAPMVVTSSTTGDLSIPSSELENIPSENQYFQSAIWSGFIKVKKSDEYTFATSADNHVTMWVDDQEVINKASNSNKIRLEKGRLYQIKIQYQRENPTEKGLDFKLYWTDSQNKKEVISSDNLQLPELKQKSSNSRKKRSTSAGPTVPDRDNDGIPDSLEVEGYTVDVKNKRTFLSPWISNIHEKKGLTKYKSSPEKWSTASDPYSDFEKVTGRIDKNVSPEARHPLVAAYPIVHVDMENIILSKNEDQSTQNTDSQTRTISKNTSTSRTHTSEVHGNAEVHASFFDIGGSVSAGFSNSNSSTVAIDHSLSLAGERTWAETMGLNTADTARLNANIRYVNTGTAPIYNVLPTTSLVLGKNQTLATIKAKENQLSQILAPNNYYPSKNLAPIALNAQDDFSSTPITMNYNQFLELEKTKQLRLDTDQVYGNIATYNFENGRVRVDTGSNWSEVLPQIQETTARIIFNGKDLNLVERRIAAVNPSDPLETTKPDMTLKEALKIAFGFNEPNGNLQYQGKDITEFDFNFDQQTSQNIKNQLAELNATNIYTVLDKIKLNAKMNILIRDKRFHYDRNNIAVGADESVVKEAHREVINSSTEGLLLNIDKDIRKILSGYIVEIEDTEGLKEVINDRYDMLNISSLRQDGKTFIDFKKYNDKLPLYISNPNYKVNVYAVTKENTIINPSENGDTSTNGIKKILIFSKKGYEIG
The subject of series [7] is Erythrocyte. The series can be described thus: Protection against Staphylococcus aureus alpha-hemolysin-induced cell death in rabbit RBC assessed as cell viability in MTS colorimetric assay. As to conditions: Oryctolagus cuniculus. It counts as functional, cell-based.
The subject of series [8] is RAW264.7. Kind of series: Protection against Bacillus anthracis lethal toxin-induced cell death in mouse RAW264.7cells assessed as cell viability in MTS colorimetric assay. It is filed as functional, cell-based.

SMILES strings stand for the structures. The source made the active and inactive calls. No cut-off for these calls is given here. A value given as a limit tells only on which side of the number the result lay.

The term IC50 denotes the point on the concentration scale where inhibition reaches its midpoint. Read a high IC50 as a need for much substance. Consider `Cl.Cl.Cl.Cl.Cl.Cl.Cl.Cl.Cl.Cl.Cl.Cl.Cl.Cl.NCCC[C@H](N)CC(=O)NC[C@H]1O[C@@H]2O[C@H]3[C@H](O)[C@@H](O)[C@@H](O[C@H]4[C@H](O)[C@@H](O)[C@@H](O[C@H]5[C@H](O)[C@@H](O)[C@@H](O[C@H]6[C@H](O)[C@@H](O)[C@@H](O[C@H]7[C@H](O)[C@@H](O)[C@@H](O[C@H]8[C@H](O)[C@@H](O)[C@@H](O[C@H]1[C@H](O)[C@H]2O)O[C@@H]8CNC(O)[C@@H](N)CCCN)O[C@@H]7CNC(=O)[C@@H](N)CCCN)O[C@@H]6CNC(=O)[C@@H](N)CCCN)O[C@@H]5CNC(=O)[C@@H](N)CCCN)O[C@@H]4CNC(=O)[C@@H](N)CCCN)O[C@@H]3CNC(=O)[C@@H](N)CCCN` (stereo partly drawn), for which the results for the IC50 (with Erythrocyte [1]; with RAW264.7 [2]; in series [3]) were more than 25 µM, more than 25 µM and 0.6 µM, respectively. The Activity entry in the series with RAW264.7 [4] is reported as “Non-toxic”.
Turning to `CC(C)(C)OC(=O)N[C@@H](CCCN)CC(=O)NC[C@H]1O[C@@H]2O[C@H]3[C@H](O)[C@@H](O)[C@@H](O[C@H]4[C@H](O)[C@@H](O)[C@@H](O[C@H]5[C@H](O)[C@@H](O)[C@@H](O[C@H]6[C@H](O)[C@@H](O)[C@@H](O[C@H]7[C@H](O)[C@@H](O)[C@@H](O[C@H]8[C@H](O)[C@@H](O)[C@@H](O[C@H]1[C@H](O)[C@H]2O)O[C@@H]8CNC(O)[C@H](CCCN)NC(=O)OC(C)(C)C)O[C@@H]7CNC(=O)[C@H](CCCN)NC(=O)OC(C)(C)C)O[C@@H]6CNC(=O)[C@H](CCCN)NC(=O)OC(C)(C)C)O[C@@H]5CNC(=O)[C@H](CCCN)NC(=O)OC(C)(C)C)O[C@@H]4CNC(=O)[C@H](CCCN)NC(=O)OC(C)(C)C)O[C@@H]3CNC(=O)[C@H](CCCN)NC(=O)OC(C)(C)C.Cl.Cl.Cl.Cl.Cl.Cl` (stereo partly drawn), the concentration for half-maximal inhibition (IC50) with Erythrocyte [1] was 5.6 µM; in the series on RAW264.7 [2], 3.5 µM; in series [3] it was 0.6 µM. Besides, the result (in series [5]; in series [6]; with Erythrocyte [7]; in the series with RAW264.7 [8]) was Active. Further, the Activity entry with RAW264.7 [4] is reported as “Non-toxic”.
`N[C@@H](CSCc1ccccc1)CC(=O)NC[C@H]1O[C@@H]2O[C@H]3[C@H](O)[C@@H](O)[C@@H](O[C@H]4[C@H](O)[C@@H](O)[C@@H](O[C@H]5[C@H](O)[C@@H](O)[C@@H](O[C@H]6[C@H](O)[C@@H](O)[C@@H](O[C@H]7[C@H](O)[C@@H](O)[C@@H](O[C@H]8[C@H](O)[C@@H](O)[C@@H](O[C@H]1[C@H](O)[C@H]2O)O[C@@H]8CNC(O)[C@@H](N)CSCc1ccccc1)O[C@@H]7CNC(=O)[C@@H](N)CSCc1ccccc1)O[C@@H]6CNC(=O)[C@@H](N)CSCc1ccccc1)O[C@@H]5CNC(=O)[C@@H](N)CSCc1ccccc1)O[C@@H]4CNC(=O)[C@@H](N)CSCc1ccccc1)O[C@@H]3CNC(=O)[C@@H](N)CSCc1ccccc1.O=C(O)C(F)(F)F.O=C(O)C(F)(F)F.O=C(O)C(F)(F)F.O=C(O)C(F)(F)F.O=C(O)C(F)(F)F.O=C(O)C(F)(F)F.O=C(O)C(F)(F)F` (stereo partly drawn): the IC50 was 10.6 µM in the series on Erythrocyte [1], more than 25 µM in the series on RAW264.7 [2] and 0.6 µM in series [3]. Moreover, the Activity result in the series on RAW264.7 [4] is “Non-toxic”.
For `Cl.Cl.Cl.Cl.Cl.Cl.Cl.N[C@@H](CS)CC(=O)NC[C@H]1O[C@@H]2O[C@H]3[C@H](O)[C@@H](O)[C@@H](O[C@H]4[C@H](O)[C@@H](O)[C@@H](O[C@H]5[C@H](O)[C@@H](O)[C@@H](O[C@H]6[C@H](O)[C@@H](O)[C@@H](O[C@H]7[C@H](O)[C@@H](O)[C@@H](O[C@H]8[C@H](O)[C@@H](O)[C@@H](O[C@H]1[C@H](O)[C@H]2O)O[C@@H]8CNC(O)[C@@H](N)CS)O[C@@H]7CNC(=O)[C@@H](N)CS)O[C@@H]6CNC(=O)[C@@H](N)CS)O[C@@H]5CNC(=O)[C@@H](N)CS)O[C@@H]4CNC(=O)[C@@H](N)CS)O[C@@H]3CNC(=O)[C@@H](N)CS` (stereo partly drawn), in that order: more than 25 µM, more than 25 µM, 0.6 µM and “Non-toxic”.
For `N[C@@H](COCc1ccccc1)CC(=O)NC[C@H]1O[C@@H]2O[C@H]3[C@H](O)[C@@H](O)[C@@H](O[C@H]4[C@H](O)[C@@H](O)[C@@H](O[C@H]5[C@H](O)[C@@H](O)[C@@H](O[C@H]6[C@H](O)[C@@H](O)[C@@H](O[C@H]7[C@H](O)[C@@H](O)[C@@H](O[C@H]8[C@H](O)[C@@H](O)[C@@H](O[C@H]1[C@H](O)[C@H]2O)O[C@@H]8CNC(O)[C@@H](N)COCc1ccccc1)O[C@@H]7CNC(=O)[C@@H](N)COCc1ccccc1)O[C@@H]6CNC(=O)[C@@H](N)COCc1ccccc1)O[C@@H]5CNC(=O)[C@@H](N)COCc1ccccc1)O[C@@H]4CNC(=O)[C@@H](N)COCc1ccccc1)O[C@@H]3CNC(=O)[C@@H](N)COCc1ccccc1.O=C(O)C(F)(F)F.O=C(O)C(F)(F)F.O=C(O)C(F)(F)F.O=C(O)C(F)(F)F.O=C(O)C(F)(F)F.O=C(O)C(F)(F)F.O=C(O)C(F)(F)F` (stereo partly drawn), in that order: 6.1 µM, more than 25 µM, 0.6 µM and “Non-toxic”.
In the same order, the values of `Cl.Cl.Cl.Cl.Cl.Cl.Cl.N[C@@H](CO)CC(=O)NC[C@H]1O[C@@H]2O[C@H]3[C@H](O)[C@@H](O)[C@@H](O[C@H]4[C@H](O)[C@@H](O)[C@@H](O[C@H]5[C@H](O)[C@@H](O)[C@@H](O[C@H]6[C@H](O)[C@@H](O)[C@@H](O[C@H]7[C@H](O)[C@@H](O)[C@@H](O[C@H]8[C@H](O)[C@@H](O)[C@@H](O[C@H]1[C@H](O)[C@H]2O)O[C@@H]8CNC(O)[C@@H](N)CO)O[C@@H]7CNC(=O)[C@@H](N)CO)O[C@@H]6CNC(=O)[C@@H](N)CO)O[C@@H]5CNC(=O)[C@@H](N)CO)O[C@@H]4CNC(=O)[C@@H](N)CO)O[C@@H]3CNC(=O)[C@@H](N)CO` (stereo partly drawn) are more than 25 µM, more than 25 µM, 0.6 µM and “Non-toxic”.

These data come from ChEMBL document CHEMBL1143738, “Inhibition of S. aureus alpha-hemolysin and B. anthracis lethal toxin by beta-cyclodextrin derivatives” (Bioorg Med Chem, 2007).
